Patent US20260097047A1, “Small molecule inhibitors of the ribosome biogenesis factor NVL2” (Board of Regents, The University of Texas System, priority 2023, published 2026)

Key:
HCT116 NVL^R403W cells = test: Cell viability counter-screen in compound-resistant HCT116 NVL^R403W cells; type: cell-based, human; settings: Homo sapiens, HCT-116; NVL^R403W knock-in
Procedure: Design and synthesis of benzothiazepine-based NVL inhibitors. […] Analogs were evaluated against the colorectal cancer cell line HCT116, and counter-screened against a compound resistant NVL2^R403W clone. Cytotoxicity in wild-type HCT116 was determined. […] Initial SAR focused on exploring the replacement of the furan ring of initial dibenzothiazepinone hit MM017. We first explored a wide variety of mono- and di-substituted phenyl rings, including a broad spectrum of functionality (F, Cl, alkyl, alkoxy, fluoroalkoxy, CN, formamide, S(O) Me, carboxyl, . . . ). […]
(§1) HCT116 cells were transfected with TransIT-LT (Mirus #MIR2304) according to manufacturer's protocol with a guide RNA (either mock or NVL targeting) in the px330 vector (Addgene, #42230), and 10 nM single stranded deoxyoligonucleotide encoding a specific NVL mutation (see below for specific sequences). […] The resulting cells were evaluated by cresyl violet staining or collected and the relevant NVL mutations were analyzed by either amplicon or sanger sequencing.
(§2) Cell viability assay: In 96-well assay plates (Corning #2903), 2,000 cells were plated per well in 100 μL of medium and allowed to adhere overnight. […] Luminescence (CellTiter-Glo) was recorded using a Synergy 2 microplate reader (BioTek). […]

HCT116 NVL^H304R cells = test: Cell viability in HCT116 NVL^H304R knock-in cells; type: cell-based; settings: Homo sapiens, HCT-116
Text: From whole exome sequencing, we identified variants that were acquired during IAA-induced mutagenesis with the hypothesis that genes related to resistance will be mutated in multiple clones. Two genes contained acquired variants in at least 3 of the 15 selected clones: TERT, mutated in 3 of 15 clones, and NVL, mutated in all 15 clones. […] In sum, 57 out of 59 unique clones harbored NVL mutations. The majority of mutations clustered within the D1 AAA+ ATPase domain and frequently affecting the same codons. […]
as §1, §2

cleaved caspase-3 = test: Cleaved caspase-3 (apoptosis), HCT116 control and p53 KO cells; type: cell-based, human
Text: The upregulation of p53 and its effector p21 can arrest cell growth or induce cell death through apoptosis. […] Next, we addressed whether cell death was mediated by an apoptotic pathway by assaying for cleaved caspase-3, a bona fide marker of apoptosis.

With `COCCN1C(=O)c2ccccc2Sc2cc(NC(=O)c3ccoc3)ccc21` [MM017] the IC50 (HCT116 NVL^R403W cells) was over 50000 nM, the IC50 (HCT116 NVL^H304R cells) was 2400 nM and the “cleaved caspase-3” value (cleaved caspase-3) was “substantially reduced in p53 KO cells”.
